Experiment in all cases: DTP human tumour cell line panel, 48 h
Experiment [1] concerns A549.
Experiment [2] relates to CCRF-CEM.
Experiment [3] concerns HL-60.
The test system of experiment [4] is HT-29.
Experiment [5] deals with K562.
Experiment [6] concerns KM12.
Experiment [7] relates to LOX IMVI.
The subject of experiment [8] is Malme-3M.
Experiment [9] deals with NCI-H23.
The subject of experiment [10] is NCI-H460.
Experiment [11] has as its system NCI/ADR-RES.
Experiment [12] concerns OVCAR-3.
Experiment [13] concerns OVCAR-5.
In experiment [14] the test system is PC-3.
Experiment [15] concerns SF-295.
Experiment [16] deals with SK-MEL-28.
Experiment [17] has as its system SK-OV-3.
Experiment [18] relates to SNB-75.
In experiment [19] the test system is RXF 393.
In experiment [20] the test system is DU-145.

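Step 1: Grow cells in 96-well plates. Step 2: Expose to compound for 48 hours at 5 concentrations. Step 3: Interpolate endpoints linearly; if unreached, use highest concentration. Here, GI50 denotes the concentration required for 50% inhibition of growth.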 The source made the active and inactive calls. Cut-off read from the data, not from the text of the source: active = GI50 up to about 1.1 µM and inactive = higher.

A word on the GI50: it is the concentration that inhibits growth by half. Regarding `O=C(O)C12CCC(CC1=O)C2` (configuration not stated), the GI50 in experiment [1], in experiment [2], in experiment [3], in experiment [4], in experiment [5] and in [6] was > 100 µM (inactive) in each case. The GI50 in experiment [7], in experiment [8], in experiment [9], in experiment [10], in [11] and in experiment [12] was > 100 µM (inactive) throughout. Besides, the GI50 in experiment [13], in [14], in experiment [15], in experiment [16], in [17] and in experiment [18] was > 100 µM (inactive) each time.

`O=C1c2ccsc2C(=O)c2sc(CO)cc21`: the GI50 in experiment [1] is 0.0507 µM (active); in experiment [2] it was 0.207 µM (active); in experiment [3] it was 0.656 µM (active); in experiment [4], 0.219 µM (active); in [5] it was 0.237 µM (active); in [6], 1.79 µM (inactive). The concentration for 50% growth inhibition (GI50) in experiment [7] is < 0.0176 µM (active); in [8], 0.61 µM (active); in experiment [9], 0.0322 µM (active); in experiment [10], 1.47 µM (inactive); in experiment [11], 0.0845 µM (active); in experiment [12] it was 1.59 µM (inactive). Besides, the GI50 in experiment [13] was 1.43 µM (inactive); in experiment [14] it was 0.126 µM (active); in [19], 1.09 µM (active); in experiment [15], 0.628 µM (active); in [16], 0.0307 µM (active); in experiment [17], 1.11 µM (active). The GI50 in [18] is 0.0564 µM (active).

On to `O=C1C(CO)=C[C@@H](O)[C@H]2O[C@@H]12` [EPOXYDON], for which the GI50 was 77.3 µM (inactive) in experiment [1]; 30.7 µM (inactive) in [2]; > 100 µM (inactive) in experiment [20]; 26 µM (inactive) in experiment [3]; > 100 µM (inactive) in experiment [4]; > 100 µM (inactive) in experiment [5]. Also, the GI50 in experiment [6] is > 100 µM (inactive); in experiment [7], 23.1 µM (inactive); in [8], > 100 µM (inactive); in experiment [9], 65.6 µM (inactive); in [10], 53.1 µM (inactive); in experiment [11], 75.5 µM (inactive). In addition, the GI50 was > 100 µM (inactive) in [12]; > 100 µM (inactive) in experiment [13]; > 100 µM (inactive) in [15]; > 100 µM (inactive) in experiment [16]; > 100 µM (inactive) in [17]; 37.4 µM (inactive) in experiment [18].

On to `Cc1nc2c(Cl)cc(Cl)cc2c2c1CCO2`, for which the GI50 in experiment [1] is > 100 µM (inactive); in [2], 48.4 µM (inactive); in [20], > 100 µM (inactive); in experiment [3], 65.3 µM (inactive); in experiment [4] it was > 100 µM (inactive); in [5], > 100 µM (inactive). The GI50 in experiment [6], in experiment [7], in [8], in experiment [9], in [10] and in experiment [11] was > 100 µM (inactive) in each case. The GI50 is > 100 µM (inactive) in experiment [13]; 87.3 µM (inactive) in experiment [19]; > 100 µM (inactive) in experiment [15]; > 100 µM (inactive) in experiment [16]; 60.8 µM (inactive) in experiment [18].
